From PubChem BioAssay (NCI)
Values joined by “and” are separate entries in the source; they are usually repeats but may differ in a detail not shown here. Equal entries are not always repeated.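 Exposure lasted 48 hours, with cells grown in 96-well plates and compounds tested at five concentrations. Here, GI50 denotes the concentration required for 50% inhibition of growth. TGI: total growth inhibition.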

Experiments:
Experiment in all cases: inhibition of tumour cell growth, NCI panel, 48 h
COLO 205 colon = test system: COLO 205 colon
CCRF-CEM leukemia = test system: CCRF-CEM leukemia
SW-620 colon = test system: SW-620 colon
PC-3 prostate = test system: PC-3 prostate
SN12C renal = test system: SN12C renal
M14 melanoma = test system: M14 melanoma
NCI-H460 lung = test system: NCI-H460 lung
TK-10 renal = test system: TK-10 renal
SK-OV-3 ovarian = test system: SK-OV-3 ovarian
A498 renal = test system: A498 renal

## O=S(=O)(/C=C/C=C/S(=O)(=O)c1ccccc1)c1ccccc1
COLO 205 colon
  GI50: 1.02 µM
  TGI: 2.77 µM and 2.71 µM
CCRF-CEM leukemia
  TGI: 0.691 µM and 0.424 µM
SW-620 colon
  GI50: 0.316 µM
  TGI: 0.433 µM and 2.26 µM
PC-3 prostate
  GI50: 1.9 µM
  TGI: 7.38 µM and 3.98 µM
SN12C renal
  TGI: 4.16 µM
M14 melanoma
  GI50: 0.801 µM
  TGI: 1.12 µM and 2.06 µM
NCI-H460 lung
  GI50: 4.01 µM
  TGI: 16.9 µM
TK-10 renal
  GI50: 1.35 µM
  TGI: 2.95 µM and 2.69 µM
SK-OV-3 ovarian
  TGI: 19.9 µM

## CC(C)(Cl)CCC1=C(Cl)C(=O)c2ccccc2C1=O
COLO 205 colon
  GI50: 2.07 µM
  TGI: 4.12 µM
CCRF-CEM leukemia
  GI50: 1.22 µM
  TGI: 4.79 µM
A498 renal
  GI50: 1.85 µM
  TGI: 12 µM
SW-620 colon
  GI50: 1.74 µM
  TGI: 3.63 µM
PC-3 prostate
  GI50: 2.27 µM
  TGI: 8.07 µM
SN12C renal
  GI50: 3.64 µM
  TGI: 13.5 µM
M14 melanoma
  GI50: 2.28 µM
  TGI: 5.51 µM
NCI-H460 lung
  GI50: 3.31 µM
  TGI: 12.4 µM
SK-OV-3 ovarian
  GI50: 5.48 µM
  TGI: 17.6 µM

## C/C(=C\c1ccn(-c2ccc(N)c(C(F)(F)F)c2)n1)[C@@H]1C[C@@H]2O[C@]2(C)CCC[C@H](C)[C@H](O)[C@@H](C)C(=O)C(C)(C)[C@@H](O)CC(=O)O1
COLO 205 colon
  GI50: 0.00855 µM
  TGI: 0.111 µM
CCRF-CEM leukemia
  GI50: 0.0117 µM
  TGI: > 32.5 µM
A498 renal
  GI50: 0.0175 µM
  TGI: 1.31 µM
SW-620 colon
  GI50: 0.00743 µM
  TGI: > 32.5 µM
PC-3 prostate
  GI50: 0.0119 µM
  TGI: > 31 µM
SN12C renal
  GI50: 0.0237 µM
  TGI: > 32.5 µM
NCI-H460 lung
  GI50: 0.00848 µM
  TGI: 6.21 µM
TK-10 renal
  GI50: 0.0548 µM
  TGI: 16.9 µM
SK-OV-3 ovarian
  GI50: 0.103 µM
  TGI: > 27.9 µM

## O=C1C2CC3C(CC2C(=O)[N]1[Sn]([c]1ccccc1)([c]1ccccc1)[c]1ccccc1)C1(Cl)C(Cl)=C(Cl)C3(Cl)C1(Cl)Cl (centres undefined)
COLO 205 colon
  GI50: 0.152 µM
  TGI: 0.33 µM
CCRF-CEM leukemia
  GI50: 0.0645 µM
  TGI: 0.371 µM
A498 renal
  GI50: 0.12 µM
  TGI: 0.276 µM
SW-620 colon
  GI50: 0.0636 µM
  TGI: 0.216 µM
PC-3 prostate
  GI50: 0.0958 µM
  TGI: 0.315 µM
SN12C renal
  GI50: 0.17 µM
  TGI: 0.448 µM
M14 melanoma
  GI50: 0.15 µM
  TGI: 0.345 µM
TK-10 renal
  GI50: 0.145 µM
  TGI: 0.288 µM
SK-OV-3 ovarian
  GI50: 0.137 µM
  TGI: 0.353 µM

## CC(=O)O[C@H](C[C@H](C(C)C)N(C)C(=O)[C@@H](NC(=O)[C@H]1CCCCN1C)C(C)C)c1nc(C(=O)N[C@@H](Cc2ccccc2)C[C@H](C)C(=O)O)c(C)s1
COLO 205 colon
  GI50: < 0.0025 µM
  TGI: 0.00595 µM
CCRF-CEM leukemia
  GI50: < 0.0025 µM
  TGI: > 25 µM
A498 renal
  GI50: < 0.0025 µM
  TGI: < 0.0025 µM
SW-620 colon
  GI50: < 0.0025 µM
  TGI: > 25 µM
PC-3 prostate
  GI50: < 0.0025 µM
  TGI: > 25 µM
SN12C renal
  GI50: < 0.0025 µM
  TGI: > 25 µM
M14 melanoma
  GI50: < 0.0025 µM
  TGI: > 25 µM
NCI-H460 lung
  GI50: < 0.0025 µM
  TGI: > 25 µM
TK-10 renal
  GI50: > 25 µM
  TGI: > 25 µM
SK-OV-3 ovarian
  GI50: < 0.0025 µM
  TGI: > 25 µM

## N=c1nc(N)c2cc3c(N)nc(=N)c3cc12
COLO 205 colon
  TGI: > 100 µM
CCRF-CEM leukemia
  TGI: 26.8 µM
A498 renal
  TGI: > 90.6 µM
SW-620 colon
  TGI: 44 µM
PC-3 prostate
  TGI: > 100 µM
SN12C renal
  TGI: 23.5 µM
M14 melanoma
  TGI: 27.9 µM
NCI-H460 lung
  TGI: > 100 µM
TK-10 renal
  TGI: 57.2 µM
SK-OV-3 ovarian
  TGI: 72.5 µM

## COc1cccc(-c2nn(-c3ccccc3)cc2-c2ccnc(NCCNS(=O)(=O)c3ccc(C(F)(F)F)cc3)c2)c1
COLO 205 colon
  GI50: 1.87 µM
  TGI: 3.57 µM
CCRF-CEM leukemia
  GI50: 2.34 µM
  TGI: > 100 µM
A498 renal
  GI50: 1.66 µM
  TGI: 6.5 µM
SW-620 colon
  GI50: 4.16 µM
  TGI: > 100 µM
PC-3 prostate
  GI50: 2.86 µM
  TGI: 26.7 µM
SN12C renal
  GI50: 2.27 µM
  TGI: 5.39 µM
M14 melanoma
  GI50: 3.8 µM
  TGI: > 100 µM
NCI-H460 lung
  GI50: 3.47 µM
  TGI: > 100 µM
TK-10 renal
  GI50: 2.39 µM
  TGI: 9.88 µM
SK-OV-3 ovarian
  GI50: 3 µM
  TGI: 11.1 µM
